# Results: patent US9332756B2, “Liquid formulations of carboxamide arthropodicides” (E I DU PONT DE NEMOURS AND COMPANY, priority 2006, dated 2016)
# Legend:
# Assay type in all cases: in vivo
# [1] = test system: western flower thrips (Frankliniella occidentalis Pergande); assay: Test A: control of western flower thrips on sprayed bean plants; details: spray 500 L/ha, 7 days, immature thrips count
# Procedure: For evaluating control of the western flower thrips (Frankliniella occidentalis Pergande) through contact and/or systemic means, each test unit consisted of a bean plant (var. Soleil) with at least two true leaves, which was planted in Redi-earth® medium (Scotts Co.). One plant was considered as one replication; four replications were used per treatment.
# Technical material (unformulated) was dissolved in acetone and mixed with water containing 500 ppm of a blend of non-ionic surfactant with organosilicone (Kinetic®, Helena Chemical Co.). Formulated materials were diluted with water only. Rates of the test solutions were reported by the amount of active ingredient in ppm. Plants were sprayed using a TeeJet flat fan spray nozzle positioned 7.5 inches (19 cm) above the tallest plant. Spray flow rate was adjusted to 5.5 mL/sec for an equivalent of 500 L/ha. After spraying of the test solutions, the test units were placed in ventilated enclosures for at least one hour to dry. Thirty adult thrips were then added to each unit, and then the plants were placed in enclosed cages to prevent insect egress. […] Percent control was calculated by dividing the number of immature thrips in a test unit by the number of immature thrips in the untreated unit, subtracting the quotient from 1, and then multiplying the difference by 100%.
# [2] = test system: silverleaf whitefly (Bemisia argentifolii Bellows & Perring); assay: Test B: control of silverleaf whitefly on sprayed cotton plants; details: 144 h, read-out: % Mortality of Silverleaf Whitefly
# Excerpt: For evaluating control of silverleaf whitefly (Bemisia argentifolii Bellows & Perring), the test unit consisted of a 14-21-day-old cotton plant with at least two true leaves, which was planted in Redi-earth® medium (Scotts Co.). The plants were placed in screened cages, where whitefly adults were introduced and allowed to lay eggs for approximately twenty-four hours. Only plants showing egg lay were used for testing. Before spraying the test solutions, the plants were checked again for egg hatch and crawler settlement. One leaf per plant was considered as one replication; four replications were used per treatment.
# Test solutions were formulated as described in TEST A. A control solution consisting of 25% acetone in water was also prepared. After spraying, plants were allowed to dry in a ventilated enclosure and held for six days in a growth chamber at 50% relative humidity, 16 h with light (as daytime) at 28° C. and 8 h in dark (as nighttime) at 24° C. After removing all leaves from each test plant, evaluation was made by counting dead and live nymphs present on the underside of the leaves.
# [3] = test system: green peach aphid (Myzus persicae); assay: Test C: control of green peach aphid on sprayed radish plants; details: 144 h, read-out: % Mortality of Green Peach Aphid
# Procedure: For evaluating control of green peach aphid (Myzus persicae) through contact and/or systemic means, the test unit consisted of a 3-week old radish plant pre-infested with 30-40 aphids 24 h prior to treatment with test solutions. One plant was considered as one replication, four replications were used per treatment.
# After spraying of the formulated test solutions, each test unit was allowed to dry, and the test units were held for 6 days in a growth chamber maintained at 19-21° C. and 50-70% relative humidity. Dead and live of aphids were counted in each test unit to determine percent mortality.
# [4] = test system: beet armyworm (Spodoptera exigua); assay: Test D: rainfastness for the control of beet armyworm on sprayed cotton plants; details: Rain: Yes (about 95 mm simulated rain 2 h after spraying), four days after infestation
# Excerpt: For evaluating rainfastness (resistance to wash-off) for the control of beet armyworm (Spodoptera exigua), the test unit consisted of a cotton plant grown in a pot containing Redi-earth® medium. Test solutions were formulated as described in TEST A. When the plants were at the 4-6 true leaf growth stage, the plants were sprayed with the formulated test solution using a belt sprayer with nozzle positioned 19 cm above the plants and providing an application volume of 234 liters/ha. After spraying of the formulated test solutions, each test unit was allowed to dry for 2 h and then exposed to about 95 mm of simulated rain in a greenhouse. Plants were then allowed to dry, and leaves were cut and placed on agar in 16-cell plastic trays. One 3-day-old, laboratory reared beet armyworm larva was placed in each cell, and the cells were covered with a plastic lid. Two 16-cell trays were used per treatment. Trays were held in a growth chamber at 75% relative humidity, 16 h with light (as daytime) and 8 h in dark (as nighttime) at 25° C. Four days after infestation, each test unit was evaluated for larvae mortality, and the mean concentrations killing 50% of the population (mean LC50) were calculated and are listed in Table 4D.
SMILES,% Control of Western Flower Thrips ([1]; 100 ppm a.i.) [%],% Control of Western Flower Thrips ([1]; 200 ppm a.i.) [%],mortality at 22 ppm [2] [%],mortality at 66 ppm [2] [%],mortality at 200 ppm [2] [%],mortality at 600 ppm [2] [%],mortality at 50 ppm [3] [%],mortality at 100 ppm [3] [%],mortality at 200 ppm [3] [%],mortality at 400 ppm [3] [%],Mean LC50 of Beet Armyworm [4],Mean LC50 of Beet Armyworm ([4]; listed as Compound 1),Mean LC50 of Beet Armyworm ([4]; listed as Compound 2)
"CNC(=O)c1cc(C#N)cc(C)c1NC(=O)c1cc(Br)nn1-c1ncccc1Cl [Technical Compound 1, 3-bromo-1-(3-chloro-2-pyridinyl)-N-[4-cyano-2-methyl-6-[(methylamino)carbonyl]phenyl]-1H-pyrazole-5-carboxamide]",74,72,90,91,100,100,8,9,19,35,Very little activity,very little activity,–
"CNC(=O)c1cc(Cl)cc(C)c1NC(=O)c1cc(Br)nn1-c1ncccc1Cl [Technical Compound 2, 3-bromo-N-[4-chloro-2-methyl-6-[(methylamino)carbonyl]phenyl]-1-(3-chloro-2-pyridinyl)-1H-pyrazole-5-carboxamide]",–,–,–,–,–,–,–,–,–,–,Inactive,–,no detectable activity
